In ChEMBL document CHEMBL4342482 (ACS Med Chem Lett, 2020):
Calls of active or inactive are those of the source. The calls are words filed in the database; no cut-off is given here.

How the values were obtained:
[1] = molecular target: T1, Phosphatidylinositol 3,4,5-trisphosphate 5-phosphatase 2 (Homo sapiens) (UniProt O15357); assay: Binding affinity to recombinant human N-terminal His-tagged SHIP2 (419 to 832 residues) expressed in Escherichia coli Rosetta2 (DE3) cells assessed as increase in release of phosphate at 100 uM incubated for 10 mins by phosphate release assay
T1 sequence (whole entry): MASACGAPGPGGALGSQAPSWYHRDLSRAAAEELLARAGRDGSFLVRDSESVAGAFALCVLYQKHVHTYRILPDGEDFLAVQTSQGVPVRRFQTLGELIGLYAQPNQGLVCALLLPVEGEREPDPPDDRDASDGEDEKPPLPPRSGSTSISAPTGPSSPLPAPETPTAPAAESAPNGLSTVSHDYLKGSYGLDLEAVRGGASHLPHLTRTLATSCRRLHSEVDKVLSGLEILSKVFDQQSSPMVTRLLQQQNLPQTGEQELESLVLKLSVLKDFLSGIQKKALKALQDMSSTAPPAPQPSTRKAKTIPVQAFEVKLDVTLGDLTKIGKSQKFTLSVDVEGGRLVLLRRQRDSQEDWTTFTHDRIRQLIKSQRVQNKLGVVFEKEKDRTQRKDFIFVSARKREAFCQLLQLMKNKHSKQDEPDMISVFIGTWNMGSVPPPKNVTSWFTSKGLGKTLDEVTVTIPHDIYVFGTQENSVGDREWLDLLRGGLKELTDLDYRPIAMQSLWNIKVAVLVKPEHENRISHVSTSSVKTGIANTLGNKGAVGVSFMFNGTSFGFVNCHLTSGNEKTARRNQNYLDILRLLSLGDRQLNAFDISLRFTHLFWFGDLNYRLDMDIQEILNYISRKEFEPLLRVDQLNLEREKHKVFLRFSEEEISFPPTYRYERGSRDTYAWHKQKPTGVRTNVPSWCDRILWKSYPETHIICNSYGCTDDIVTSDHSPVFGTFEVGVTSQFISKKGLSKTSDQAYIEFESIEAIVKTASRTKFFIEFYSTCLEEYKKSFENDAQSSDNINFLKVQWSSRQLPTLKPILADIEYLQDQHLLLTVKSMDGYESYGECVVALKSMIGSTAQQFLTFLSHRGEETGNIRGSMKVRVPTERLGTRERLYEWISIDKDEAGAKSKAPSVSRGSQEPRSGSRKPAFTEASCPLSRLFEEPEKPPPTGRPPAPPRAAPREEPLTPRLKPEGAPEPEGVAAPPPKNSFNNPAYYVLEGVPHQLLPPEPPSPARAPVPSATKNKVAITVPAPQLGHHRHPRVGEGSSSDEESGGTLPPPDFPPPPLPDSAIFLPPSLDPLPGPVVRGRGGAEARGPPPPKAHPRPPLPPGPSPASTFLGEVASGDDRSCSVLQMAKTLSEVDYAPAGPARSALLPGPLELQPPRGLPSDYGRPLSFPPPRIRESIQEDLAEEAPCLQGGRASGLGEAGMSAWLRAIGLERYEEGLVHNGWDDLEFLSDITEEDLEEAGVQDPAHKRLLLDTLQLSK

[2] = molecular target: T2, Phosphatidylinositol 3,4,5-trisphosphate 5-phosphatase 2 (Homo sapiens, UniProt O15357); assay: Displacement of 2FAMInsP5 from recombinant human N-terminal His-tagged SHIP2 (419 to 832 residues) expressed in Escherichia coli Rosetta2 (DE3) cells by fluorescence polarization assay
T2 sequence (O15357 whole entry): T1 sequence (whole entry)

[3] = molecular target: T3, Inositol polyphosphate-5-phosphatase A (Homo sapiens, UniProt Q14642); assay: Inhibition of recombinant human brain INPP5A expressed in Escherichia coli incubated for 10 mins by malachite green reagent based phosphate assay
T3 sequence (Q14642 whole entry): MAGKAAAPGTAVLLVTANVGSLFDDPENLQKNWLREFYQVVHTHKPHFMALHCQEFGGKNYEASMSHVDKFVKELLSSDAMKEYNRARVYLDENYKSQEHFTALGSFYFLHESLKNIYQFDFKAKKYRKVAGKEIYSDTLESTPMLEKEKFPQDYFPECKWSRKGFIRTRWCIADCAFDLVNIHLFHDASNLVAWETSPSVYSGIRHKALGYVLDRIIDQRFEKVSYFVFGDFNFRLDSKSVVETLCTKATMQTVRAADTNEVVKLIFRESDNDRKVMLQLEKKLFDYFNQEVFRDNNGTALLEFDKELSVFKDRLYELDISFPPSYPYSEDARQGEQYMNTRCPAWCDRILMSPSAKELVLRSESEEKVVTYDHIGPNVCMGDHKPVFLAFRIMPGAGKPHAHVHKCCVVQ

[4] = molecular target: T1, Phosphatidylinositol 3,4,5-trisphosphate 5-phosphatase 2 (Homo sapiens); assay: Substrate activity at recombinant human N-terminal His-tagged SHIP2 (419 to 832 residues) expressed in Escherichia coli Rosetta2 (DE3) cells assessed as 1,2-diOH-Bz(3,4)P2 product formation at 100 uM incubated for 2 hrs in presence of AS1949490 by fluorescence based HPLC analysis
[5] = molecular target: T1, Phosphatidylinositol 3,4,5-trisphosphate 5-phosphatase 2 (Homo sapiens); assay: Substrate activity at recombinant human N-terminal His-tagged SHIP2 (419 to 832 residues) expressed in Escherichia coli Rosetta2 (DE3) cells assessed as 1,3-Di-OH-Bz(2,4)P2 product formation at 100 uM incubated for 2 hrs in presence of AS1949490 by fluorescence based HPLC analysis
[6] = molecular target: T1, Phosphatidylinositol 3,4,5-trisphosphate 5-phosphatase 2 (Homo sapiens); assay: Substrate activity at recombinant human N-terminal His-tagged SHIP2 (419 to 832 residues) expressed in Escherichia coli Rosetta2 (DE3) cells assessed as 5-OH-Bz(1,2,4)P3 product formation at 100 uM incubated for 2 hrs by fluorescence based HPLC analysis
[7] = molecular target: T1, Phosphatidylinositol 3,4,5-trisphosphate 5-phosphatase 2 (Homo sapiens); assay: Substrate activity at recombinant human N-terminal His-tagged SHIP2 (419 to 832 residues) expressed in Escherichia coli Rosetta2 (DE3) cells assessed as 5-OH-Bz(1,2,4)P3 product formation at 100 uM incubated for 2 hrs in presence of INS(1,3,4,5)P4 by fluorescence based HPLC analysis
[8] = molecular target: T1, Phosphatidylinositol 3,4,5-trisphosphate 5-phosphatase 2 (Homo sapiens); assay: Substrate activity at recombinant human N-terminal His-tagged SHIP2 (419 to 832 residues) expressed in Escherichia coli Rosetta2 (DE3) cells assessed as 5-OH-Bz(1,2,4)P3 product formation at 100 uM incubated for 2 hrs with 100 nM to 1 mM of SHIP2 by fluorescence based HPLC analysis
[9] = molecular target: T1, Phosphatidylinositol 3,4,5-trisphosphate 5-phosphatase 2 (Homo sapiens); assay: Substrate activity at recombinant human N-terminal His-tagged SHIP2 (419 to 832 residues) expressed in Escherichia coli Rosetta2 (DE3) cells assessed as 5-OH-Bz(1,2,4)P3 product formation at 100 uM incubated for 12 hrs by fluorescence based HPLC analysis
[10] = molecular target: T1, Phosphatidylinositol 3,4,5-trisphosphate 5-phosphatase 2 (Homo sapiens); assay: Substrate activity at recombinant human N-terminal His-tagged SHIP2 (419 to 832 residues) expressed in Escherichia coli Rosetta2 (DE3) cells assessed as 5-OH-Bz(1,2,4)P3 product formation at 100 uM incubated for 2 hrs in presence of AS1949490 by fluorescence based HPLC analysis
[11] = molecular target: T1, Phosphatidylinositol 3,4,5-trisphosphate 5-phosphatase 2 (Homo sapiens); assay: Substrate activity at recombinant human N-terminal His-tagged SHIP2 (419 to 832 residues) expressed in Escherichia coli Rosetta2 (DE3) cells assessed as 5-OH-Bz(1,2,4)P3 product formation at 100 uM measured upto 4 hrs by fluorescence based HPLC analysis
[12] = molecular target: Type II inositol 1,4,5-trisphosphate 5-phosphatase (Homo sapiens, UniProt P32019); assay: Inhibition of recombinant human C-terminal His-tagged INPP5B (259 to 563 residues) expressed in Escherichia coli BL21 (DE3) incubated for 5 mins using Ins(1,4,5)P3 as substrate by malachite green reagent based phosphate assay
[13] = molecular target: T2, Phosphatidylinositol 3,4,5-trisphosphate 5-phosphatase 2; assay: Displacement of Ins(1,3,4,5)P4 from recombinant human N-terminal His-tagged SHIP2 (419 to 832 residues) expressed in Escherichia coli BL21 (DE3)
[14] = molecular target: T1, Phosphatidylinositol 3,4,5-trisphosphate 5-phosphatase 2 (Homo sapiens); assay: Substrate activity at recombinant human N-terminal His-tagged SHIP2 (419 to 832 residues) expressed in Escherichia coli Rosetta2 (DE3) cells assessed as 3-OH-Bz(1,2,4)P3 product formation at 100 uM incubated for 2 hrs in presence of AS1949490 by fluorescence based HPLC analysis

Chain of Type II inositol 1,4,5-trisphosphate 5-phosphatase (P32019 whole entry, the tested form may be a part): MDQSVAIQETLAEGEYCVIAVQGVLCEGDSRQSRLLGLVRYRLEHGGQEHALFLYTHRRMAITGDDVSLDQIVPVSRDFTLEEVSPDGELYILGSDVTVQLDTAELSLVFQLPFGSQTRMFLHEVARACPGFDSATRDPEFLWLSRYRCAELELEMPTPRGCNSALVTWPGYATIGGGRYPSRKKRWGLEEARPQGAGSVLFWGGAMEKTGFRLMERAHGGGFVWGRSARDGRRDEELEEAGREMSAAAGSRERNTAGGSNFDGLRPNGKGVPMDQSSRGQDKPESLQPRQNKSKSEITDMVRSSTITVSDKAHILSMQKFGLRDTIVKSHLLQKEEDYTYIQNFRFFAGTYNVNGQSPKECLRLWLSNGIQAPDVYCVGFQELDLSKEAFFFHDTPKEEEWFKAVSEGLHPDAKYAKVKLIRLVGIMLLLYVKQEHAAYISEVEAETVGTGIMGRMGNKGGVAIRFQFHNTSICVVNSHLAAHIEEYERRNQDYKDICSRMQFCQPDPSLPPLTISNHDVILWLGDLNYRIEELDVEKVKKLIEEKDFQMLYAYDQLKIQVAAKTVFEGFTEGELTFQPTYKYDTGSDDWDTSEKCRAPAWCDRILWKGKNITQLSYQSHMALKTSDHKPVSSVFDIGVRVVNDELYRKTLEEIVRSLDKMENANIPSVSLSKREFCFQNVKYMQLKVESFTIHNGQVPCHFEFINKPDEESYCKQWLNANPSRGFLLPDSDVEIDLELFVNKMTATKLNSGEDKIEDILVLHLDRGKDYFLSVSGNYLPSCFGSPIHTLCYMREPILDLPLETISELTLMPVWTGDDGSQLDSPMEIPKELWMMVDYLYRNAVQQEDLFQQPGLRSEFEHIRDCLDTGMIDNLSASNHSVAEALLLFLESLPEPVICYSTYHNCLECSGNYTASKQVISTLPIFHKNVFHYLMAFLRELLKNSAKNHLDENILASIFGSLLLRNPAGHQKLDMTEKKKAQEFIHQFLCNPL

Question: What does the source list for O=P(O)(O)Oc1cc(OP(=O)(O)O)c(OP(=O)(O)O)c(OP(=O)(O)O)c1?
Answer: Activity [1]: Active; IC50 [2]: 1.01 µM; IC50 [3]: 78 µM

Question: How did the Activity [4] turn out when O=P(O)(O)Oc1ccc(OP(=O)(O)O)c(OP(=O)(O)O)c1O was run?
Answer: Active

Question: What about the Activity [5] of the same compound?
Answer: inactive

Question: O=P(O)(O)Oc1ccc(OP(=O)(O)O)c(OP(=O)(O)O)c1 was tested. Which Activity [1] did it give?
Answer: Active

Question: And the IC50 [2]?
Answer: 7.02 µM

Question: And the IC50 [3]?
Answer: 14 µM

Question: Which results are given for O=P(O)(O)Oc1cc(OP(=O)(O)O)c(OP(=O)(O)O)cc1OP(=O)(O)O?
Answer: Activity [6]: Active; Activity [1]: Active; Activity [7]: Active; Activity [8]: Active; IC50 [2]: 1.02 µM; Activity [9]: Active; Activity [10]: inactive; Activity [11]: Active; IC50 [3]: 4 µM

Question: How did the IC50 [12] turn out when O=P(O)(O)Oc1cccc(OP(=O)(O)O)c1OP(=O)(O)O was run?
Answer: 33.5 µM

Question: And the Activity [1]?
Answer: Active

Question: And the IC50 [13]?
Answer: > 1 mM

Question: And the IC50 [2]?
Answer: 14.2 µM

Question: And the IC50 [3]?
Answer: 86 µM

Question: For O=P(O)(O)Oc1ccc(OP(=O)(O)O)c(OP(=O)(O)O)c1OP(=O)(O)O, which Activity [1] is on record?
Answer: Active

Question: What about the Activity [4] of the same compound?
Answer: Active

Question: What about the Activity [14] of the same compound?
Answer: inactive

Question: And the IC50 [2]?
Answer: 2.78 µM

Question: What about the IC50 [3] of the same compound?
Answer: 98 µM

Question: With O=P(O)(O)Oc1cc(OP(=O)(O)O)cc(OP(=O)(O)O)c1 as the compound, how does the Activity [1] read?
Answer: Active

Question: What about the IC50 [2] of the same compound?
Answer: 11.3 µM

Question: What about the IC50 [3] of the same compound?
Answer: 16 µM
